Laboratory results reported in patent US11034702B2, “Thienoisoquinolines and their derivatives for the treatment of cancer” (VALORBEC, SOCIÉTÉ EN COMMANDITE, priority 2016, dated 2021).
“Also recorded” adds a separate entry of the source.

What was measured:
[1] = system: A549 cells; assay: Mitotic spindle phenotype in A549 cells; format: cell-based, human; settings: A549, 300 nM, 6-8 hours
Description: (§1) FIG. 2A) is a line graph showing the percentage of HCT116 (p53−/−) cells, A549 cells, HeLa cells and H1299 cells in mitosis after treatment with various concentrations of C75 for one population doubling time. All of the cell lines show an increase in the proportion of mitotic cells after treatment with 200 nM C75. The bars indicate standard deviation. […] While the mitotic spindles were not dramatically altered by C75 in HFF1 cells, they were monopolar (as shown) or fragmented in the other cell types. […] The mitotic spindles were more strongly fragmented after C75 treatment in these cells vs. the cells in FIG. 2B). […] While mitotic spindles recovered bipolarity after removing nocodazole, they remained multipolar after removing C75. FIG. 2F) is a series of time-lapse images of a live HeLa cell expressing GFP:tubulin after treatment with C75 as shown in 2D) and 2E). The scale bar for all cells is 10 μm. FIG. 2G) is a schematic showing the putative target for C75. […]
(§2) C75 was also tested for efficacy in different cancer cell lines. […] To further assess the role of C75 in affecting centrosomes, HeLa cells were treated with C75 for a short period of time (5 minutes), then C75 was removed and the cells were analyzed for spindle phenotypes (schematic in FIG. 2D). […]

[2] = system: MCF-10A cells; assay: Mitotic spindle phenotype in MCF-10A cells; format: cell-based; settings: 300 nM, 6-8 hours
Description: as §1, §2

[3] = system: A549 cells; assay: Mitotic arrest (percentage of cells in mitosis) in A549 cells; format: cell-based, human; settings: A549, within one population doubling time
Description: as §1, §2

[4] = system: H1299 cells; assay: Mitotic spindle phenotype in H1299 cells; format: cell-based, human; settings: H1299, 300 nM, 6-8 hours
Description: as §1, §2

[5] = system: HeLa cells; assay: Mitotic spindle / centrosome phenotype in HeLa cells (tubulin and DAPI staining, live imaging); format: cell-based, human
Description: (§3) There were more rounded mitotic cells after C75 treatment in comparison to the control. FIG. 1B) is a line graph showing the percentage of HeLa and HFF1 cells in mitosis after treatment with various concentrations of C75 for 8 hours. The bars indicate standard deviation. FIG. 1C) is a series of images showing cells that were fixed and co-stained for tubulin (microtubules) and DAPI (DNA). Treatment of HeLa cells with 300 nM C75 caused the mitotic spindles to be disorganized, while they were not affected in HFF1 cells. […] The scale bar for the cells is 10 μm. FIG. 1D) is a cartoon schematic showing the key features of a metaphase cell.
FIG. 2A) is a line graph showing the percentage of HCT116 (p53−/−) cells, A549 cells, HeLa cells and H1299 cells in mitosis after treatment with various concentrations of C75 for one population doubling time. All of the cell lines show an increase in the proportion of mitotic cells after treatment with 200 nM C75. The bars indicate standard deviation. […] While the mitotic spindles were not dramatically altered by C75 in HFF1 cells, they were monopolar (as shown) or fragmented in the other cell types. […] The mitotic spindles were more strongly fragmented after C75 treatment in these cells vs. the cells in FIG. 2B). […] While mitotic spindles recovered bipolarity after removing nocodazole, they remained multipolar after removing C75. FIG. 2F) is a series of time-lapse images of a live HeLa cell expressing GFP:tubulin after treatment with C75 as shown in 2D) and 2E). The scale bar for all cells is 10 μm. FIG. 2G) is a schematic showing the putative target for C75. Healthy cells have two centrosomes that separate and form a bipolar spindle, while cancer cells have aberrant centrosomes that cluster to form ‘pseudo’ bipolar spindles, and C75 may target this process and their integrity.
FIG. 3A) is a line graph showing the percentage of mitotic HeLa or HFF1 cells treated with a range of paclitaxel (Taxol™; tubulin-targeting drug) concentrations+/−C75 as indicated. The bars indicate standard deviation. FIG. 3B) is a series of bar graphs showing the proportion of HCT116 cells that have monopolar spindles, bipolar spindles with aligned chromosomes, bipolar spindles with misaligned chromosomes and multipolar/fragmented spindles after treatments as shown. Treatments include DMSO (control), varying concentrations of paclitaxel and/or varying concentrations of C75 after 7 hours. While treatment of HCT116 cells with 2.5 nM paclitaxel caused a threshold of mitotic spindle phenotypes, adding increasing concentrations of C75 in combination with 2.5 nM paclitaxel caused the phenotypes to progressively worsen. FIG. 3C) is bar graph showing the average distance between centrosome fragments in HCT116 cells after treatments as shown. While centrosome fragments moved closer together with increased concentrations of paclitaxel, they moved further apart with increased concentrations of C75. […] FIG. 3E) is a line graph showing the percentage of mitotic HeLa or HFF1 cells treated with a range of nocodazole concentrations+/−C75 as indicated. The bars indicate standard deviation. FIG. 3F) is a series of images showing fixed HeLa cells after treatment with C75+/− nocodazole co-stained for tubulin, γ-tubulin and DNA (DAPI). […] Adding nocodazole to cells treated with 300 nM C75 caused mitotic spindle phenotypes to worsen and appear more similar to those after treatment with 600 nM C75. The scale bar for all cells is 10 μm. FIG. 3G) is a bar graph showing the percentage of phenotypes observed for metaphase HeLa cells treated with nocodazole or C75, or both for 20 minutes (n>15 per treatment).
Spindle fragmentation only occurred after extensive microtubule depolymerization in colchicine-treated cells, while the spindle poles fragmented prior to changes in microtubules after C75 treatment. The scale bar for all cells is 10 μm.
C75 was further tested and found to cause mitotic arrest in HeLa cells. […]

[6] = system: MCF-7 (mammary gland carcinoma) cells; assay: IC50 (viability) in MCF-7 cells; format: cell-based; settings: Homo sapiens, MCF7
Description: (§4) 19 variants with different structural modifications have been made. […] In particular, it is shown that C75 causes death in multiple cancer cells with IC50 values in the 100 nM range, including breast cancers (MCF7, BT549), lung cancer (A549), colorectal cancer (HCT116) in addition to HeLa cells (cervical cancer).

[7] = system: BT549 (breast ductal carcinoma) cells; assay: IC50 (viability) in BT549 cells; format: cell-based; settings: Homo sapiens, BT-549
Description: as §4

[8] = system: MCF-10A (mammary gland fibrocystic disease) non-cancer cells; assay: IC50 (viability) in MCF-10A non-cancer cells; format: cell-based; settings: Homo sapiens, MCF10A non-cancer cells
Description: as §4

[9] = system: HFF1 cells; assay: Mitotic spindle phenotype in HFF1 cells; format: cell-based
Description: as §3
FIG. 2A) is a line graph showing the percentage of HCT116 (p53−/−) cells, A549 cells, HeLa cells and H1299 cells in mitosis after treatment with various concentrations of C75 for one population doubling time. All of the cell lines show an increase in the proportion of mitotic cells after treatment with 200 nM C75. The bars indicate standard deviation. […]
as §2

[10] = system: HCT116 (colorectal cancer) cells; assay: IC50 (cell death) in HCT116 cells; format: cell-based; settings: Homo sapiens, HCT-116; stated jointly for MCF7, BT549, A549, HCT116 and HeLa; HCT116 not in Table 3; read-out: IC50 values (death in multiple cancer cells)
Description: as §4

Q: How did the mitotic spindle phenotype [1] turn out when COc1ccc(S(=O)(=O)N2Cc3ccccc3-c3sc(Br)cc32)cc1 [Compound C75] was run?
A: most of the spindles were severely fragmented

Q: And the mitotic spindle phenotype [2]?
A: mix of monopolar, bipolar and multipolar spindles

Q: And the “concentration causing mitotic arrest” value [3]?
A: 100 to 200 nM

Q: What about the mitotic spindle phenotype [4] of the same compound?
A: mix of monopolar, bipolar and multipolar spindles

Q: And the mitotic spindle phenotype ([5]; HeLa, 300 nM)?
A: spindle organization was perturbed; also recorded: most of the spindles were severely fragmented

Q: What about the mitotic spindle phenotype ([5]; HeLa, 750 nM) of the same compound?
A: Centrosomes were fragmented or declustered and microtubules were completely absent; also recorded: complete fragmentation of the mitotic spindles

Q: What about the “spindle phenotype at lower concentrations” value ([5]; HeLa, 8 hours, 30 nM colchicine or 300 nM C75) of the same compound?
A: disrupted spindle poles

Q: What about the “spindle phenotype at higher concentrations” value ([5]; HeLa, 8 hours, 40 or 50 nM colchicine, 400 or 500 nM C75) of the same compound?
A: spindle fragmentation prior to extensive loss of microtubules

Q: What about the “time after exposure until centrosomes fragmented or declustered and microtubules collapsed” value ([5]; live imaging, HeLa GFP:tubulin) of the same compound?
A: 4 to 6 min

Q: And the “time until microtubule polymers grew again” value ([5]; live imaging, HeLa, after wash-out, spindles tri- or multipolar)?
A: 20 to 30 min

Q: And the “spindle phenotype after drug wash-out” value ([5]; metaphase HeLa, 5 minutes treatment, washed out, imaged after 40 minutes)?
A: tri- or multipolar spindles formed

Q: What about the “spindle phenotype, drugs alone vs. together” value ([5]; metaphase HeLa, nocodazole or C75 or both, 20 minutes) of the same compound?
A: disorganized and/or fragmented mitotic spindles

Q: What about the IC50 [6] of the same compound?
A: 101 nM

Q: What about the IC50 [7] of the same compound?
A: 158 nM

Q: What about the IC50 [8] of the same compound?
A: 309 nM

Q: What about the mitotic spindle phenotype ([9]; HFF1, 300 nM) of the same compound?
A: not affected; also recorded: majority of HFF1 cells had bipolar spindles

Q: What about the mitotic spindle phenotype ([9]; HFF1, 750 nM) of the same compound?
A: disorganized

Q: And the IC50 [10]?
A: ~100 nM
